Results reported in BigSolDB 2.1.

Oc1cccc(/C=N\NC(=S)NC2CCCCC2)c1
Details	solubility (mole fraction)
in PEG-400, 298.15 K	0.071
in PEG-400, 308.15 K	0.0774
in PEG-400, 318.15 K	0.0845
in PEG-400, 328.15 K	0.0929
in PEG-400, 338.15 K	0.101

solubility (mole fraction)
Details	in ethanol	in ethyl acetate	in ethylene glycol	in isopropanol	in propylene glycol	in transcutol	in water
298.15 K	0.0135	0.0104	0.00185	0.0302	0.0319	0.0938	3.9e-07
308.15 K	0.0141	0.0117	0.00225	0.0313	0.0332	0.0978	5.85e-07
318.15 K	0.0149	0.0132	0.0029	0.0323	0.0345	0.102	9.09e-07
328.15 K	0.0156	0.0147	0.00358	0.0335	0.036	0.106	1.36e-06
338.15 K	0.0164	0.0167	0.00454	0.0345	0.0376	0.111	1.88e-06
